Measured values as given in patent US20020040062A1, “Protein kinase C activators and their use in decreasing expression of cell antigens” (The Trustees of Columbia University, priority 1993, published 2002).
Read-outs that look alike come from different tables or passages of the source. Marks after values point to notes of the source that are not given here.

B1: IFN-γ: recombinant human immune interferon produced in Escherichia coli (protein, UniProt P01579 24-161, looked up)
Interferon gamma: QDPYVKEAENLKKYFNAGHSDVADNGTLFLGILKNWKEESDRKIMQSQIVSFYFKLFKNFKDDQSIQKSVETIKEDMNVKFFNSNKKKRDDFEKLTNYSVTDLNVQRKAIHELIQVMAELSPAAKTGKRKRSQMLFRG
B2: IFN-β: recombinant human fibroblast interferon with a serine substituted for a cysteine at position 17 (protein, UniProt P01574 22-187, looked up, variant C17S)
Interferon beta: MSYNLLGFLQRSSNFQSQKLLWQLNGRLEYCLKDRMNFDIPEEIKQLQQFQKEDAALTIYEMLQNIFAIFRQDSSSTGWNETIVENLLANVYHQINHLKTVLEEKLEKEDFTRGKLMSSLHLKRYYGRILHYLKAKEYSHCAWTIVRVEILRNFYFINRLTGYLRN

Key:
c-erbB-2 = experiment: FACS analysis of c-erbB-2 surface expression in T47D cells; type: cell-based, human; conditions: 72 hr; for c-erbB-2 level of upregulation versus untreated control cells (equivalent to 1.0) / Antigenic Expression (MFI) c-erbB-2: 0.1 μg/ml TPA or MEZ; for c-erbB-2 level of upregulation versus untreated control cells (equivalent to 1.0): presence or absence of 0.1 μg/ml H-7; for Antigenic Expression (MFI) c-erbB-2: presence or absence of 0.1 μg/ml H-7, FACStar
Description: IgG1 murine monoclonal antibody Cu18 and Cu46 recognize two different epitopes of a highly restricted breast carcinoma associated glycoprotein of Mr 225,000 to 250,000 (BCA 225). This TAA is expressed intracytoplasmically and on the membrane of 94% of breast tumors tested and in the T47D human breast carcinoma cell line. BCA 225 is shed into the culture medium by T47D cells and into the sera of breast cancer patients. IgG2a monoclonal antibody L243 (anti HLA Class II-DR) recognizes a monomorphic HLA Class II-DR-α epitope (ATCC M355). Monoclonal antibody CL203.4 [40], which recognizes ICAM-I, was kindly provided by Dr. S. Ferrone, New York Medical College, NY. The c-erbB-2 monoclonal antibody which recognizes the extracellular domain of c-erbB-2 was obtained from Triton Biosciences, Inc., Alamedia, Calif. Monoclonal antibodies Cu18 and Cu46 were used at 0.05 μg/ml and monoclonal antibodies interacting with HLA Class II-DR, ICAM-1 and c-erbB-2 were used at 10 μg/ml. For each experiment, isotype matched control backgrounds (IgG for Cu18, Cu46 and ICAM-1, IgG2a for HLA Class Ii and IgG2b for c-erbB-2) were subtracted from the experimental results. Background from antimouse IgG FITC antibody was also subtracted from experimental results. Applicants never observed backgrounds higher than 2% of total cells for isotypic mouse IgG or higher than 5% for antimouse IgG FITC.
(§1) T47D cells treated with the various compounds were analyzed by flow cytometry using appropriate monoclonal antibody concentrations as described previously. Briefly, 1×10^5 cells were incubated with the test antibody for 30 min at 4° C., washed 3× with PBS and incubated with a goat a mouse F (ab)2 FITC conjugated test antibody at a 1:40 dilution for 30 min at 4° C. Cells were then washed 3× with PBS and analyzed on a FACStar (Beckon Dickinson, Mountain View, Calif.) or a Coulter Epics IV FACS (Coulter, Hialeah, Fla.). Results are expressed as mean fluorescence intensity (MFI) units which were determined as described previously. MFI=(mean channel fluorescence in fluorescence positive antibody-binding cells×% of fluorescence positive antibody-binding cells)−(mean channel fluorescence in unstained cells×% of fluorescence positive cells in the unstained population). All studies were performed a minimum of three or four times with duplicate samples in each experiment. Replicate samples within individual experiments varied by ≦10% and variation between experiments were generally ≦20%.

HLA Class I = experiment: Northern blotting, steady-state HLA Class I mRNA in T47D cells; type: cell-based, human; conditions: 72 hr; for increase in HLA class I antigen mRNA levels: 500 units/ml IFN-α or IFN-β, 50 units/ml IFN-γ, 0.1 μg/ml TPA or MEZ, densitometry
Experimental: FIG. 3: Effect of interferon, ADMB, TPA and MEZ, alone and in combination with H-7, on steady-state mRNA levels of HLA Class I antigens, HLA Class II-DRβ antigen, c-erbB-2, ICAM-1 and GAPDH in T47D human breast carcinoma cells. […] Cultures were also grown in the presence of 0.1 μg/ml of H-7 for 72 hr with and without the additional compounds indicated above. Total cytoplasmic RNA was isolated and processed as described in “Detailed Description Of The Invention.” Control: CON; recombinant human leukocyte interferon-A: IFN-αA; recombinant human fibroblast interferon: IFN-β; recombinant human immune interferon: IFN-γ; ADMB; 3-(N-acetylamino)-5-(N-decyl-N-methylamino)-benzyl alcohol; TPA; 12-0-tetradecanoyl-phorbol-13-acetate; MEZ; mezerein; H-7: (1-(5-isoquinolinesulfonyl)-2-methylpiperazine dihydrochloride.
Steady-state levels of HLA Class I, HLA Class II-DRβ, c-erbB-2 and ICAM-I mRNA in control and treated T47D cells were determined by Northern blotting analysis of total cytoplasmic RNA probed with appropriate ^32P-labeled gene probes as previously described. Northern blots were also probed with a ^32P-labeled glyceraldehyde phosphate dehydrogenase (GAPDH) gene probe to verify equal […] under various experimental conditions. Following hybridization, the filters were washed and exposed for autoradiography.

T47D cells = experiment: Dose-range and time-course of antigenic enhancement in T47D cells and effect of H-7; type: cell-based, human
Experimental: as §1, with “experiment.” for “experiment. Replicate samples within individual experiments varied by ≦10% and variation between experiments were generally ≦20%.”

MoAb K56 [1] = experiment: FACS analysis of MoAb K56 binding in WiDr human colon carcinoma cells; type: cell-based
Experimental: (§2) Cells were plated in 10 cm plates, media was changed 24 hours later with no addition (control) or addition of the indicated compounds and cells were incubated at 37° C. for the indicated time (72 or 96 hours). Cells were resuspended using 10× EDTA and antigen expression was determined as described (Leon, Mesa-Tejada, Gutierrez, Estabrook, Greiner, Schlom & Fisher: Anticancer Res. 9:1639-1648, 1989; Leon, Gutierrez, Jiang, Estabrook, Waxman & Fisher: Cancer Immunol. Immmunother. 35:315-324, 1992).

CA19.9 = experiment: FACS analysis of CA19.9 (MoAb B67.4) in WiDr human colon carcinoma cells; type: cell-based
Experimental: as §2

MoAb K56 [2] = experiment: FACS analysis of MoAb K56 binding in CBS human colon carcinoma cells; type: cell-based; conditions: 96 hours
Experimental: as §2, with “for” for “for the indicated time (72 or”, “hours.” for “hours).”, “Breiner,” for “Greiner,”, “Immuno. Immunother. 35:315-324” for “Immunol. Immmunother. 35:315-324,”

HLA-DR = experiment: FACS analysis of HLA-DR (MoAb L243) in CBS human colon carcinoma cells; type: cell-based; conditions: 96 hours
Experimental: as §2, with “for” for “for the indicated time (72 or”, “hours.” for “hours).”, “Breiner,” for “Greiner,”, “Immuno. Immunother. 35:315-324” for “Immunol. Immmunother. 35:315-324,”

[3] = 72 Hour Treatment, MEZ 100 ng/ml, IFN-γ 100 U/ml
[4] = 96 Hour Treatment, MEZ 100 ng/ml, IFN-γ 100 U/ml
[5] = T47D cells, preliminary studies, data not shown
[6] = 72 Hour Treatment, ADMB 0.01 μg/ml
[7] = 72 Hour Treatment, ADMB 0.1 μg/ml
[8] = 72 Hour Treatment, ADMB 1.0 μg/ml
[9] = 96 Hour Treatment, ADMB 0.01 μg/ml
[10] = 96 Hour Treatment, ADMB 0.1 μg/ml
[11] = 96 Hour Treatment, ADMB 1.0 μg/ml

Molecule	c-erbB-2 level of upregulation versus untreated control cells (equivalent to 1.0) (c-erbB-2)	Antigenic Expression (MFI) c-erbB-2 (c-erbB-2)	increase in HLA class I antigen mRNA levels (HLA Class I) [fold]	Monoclonal Antibody Binding (MFI) MoAb K56 (MoAb K56 [1]; [3])	Monoclonal Antibody Binding (MFI) MoAb K56 (MoAb K56 [1]; [4]) [MFI]	Monoclonal Antibody Binding (MFI) MoAb B67.4 (CA19.9) (CA19.9; [3])	Monoclonal Antibody Binding (MFI) MoAb B67.4 (CA19.9) (CA19.9; [4])	Monoclonal Antibody Binding (MFI) MoAb K56 (MoAb K56 [2]; MEZ 1100 ng/ml, IFN-γ 100 U/ml)	Monoclonal Antibody Binding (MFI) MoAb L243 (HLA-DR) (HLA-DR; MEZ 1100 ng/ml, IFN-γ 100 U/ml)	most effective dose inducing upregulation of BCA 225, HLA Class II antigens, ICAM-1 and c-erbB-2 (T47D cells; [5]) [µg/mL]	further results
CC1CNCCN1S(=O)(=O)c1cccc2cnccc12.Cl.Cl (stereo not drawn) [H-7, 1-(5-isoquinolinesulfonyl)-2-methylpiperazine dihydrochloride]	(1.0)	7,045 MFI	–	–	–	–	–	–	–	–	alteration of HLA class I mRNA levels by H-7 (HLA Class I; 0.1 μg/ml H-7): ≤ 1.2 fold; effect of H-7 on enhancement of BCA 225, HLA Class II antigens and ICAM-1 expression by IFN-β or IFN-γ (T47D cells; T47D cells, 1.0 μg/ml H-7): did not inhibit; effect of H-7 on increased antigenic expression induced by TPA, MEZ or ADMB (T47D cells; T47D cells, simultaneous exposure to 0.1 μg/ml H-7): inhibited
CCCCCCCCCCCCCC(=O)O[C@@H]1[C@@H](C)[C@@]2(O)[C@@H](C=C(CO)C[C@]3(O)C(=O)C(C)=C[C@@H]23)[C@H]2C(C)(C)[C@]12OC(C)=O [TPA, 12-0-tetradecanoyl-phorbol-13-acetate]	(2.3)	16,100 MFI	1.3	–	–	–	–	–	–	–	most effective dose inducing upregulation of BCA 225, HLA Class II antigens, ICAM-1 and c-erbB-2 (T47D cells): 0.1 µg/mL
C=C(C)[C@@]12O[C@@]3(c4ccccc4)O[C@@H]1[C@@H]1[C@@H]4O[C@]4(CO)[C@@H](O)[C@]4(O)C(=O)C(C)=C[C@H]4[C@@]1(O3)[C@H](C)[C@H]2OC(=O)/C=C/C=C/c1ccccc1 [MEZ, mezerein]	(2.6)	18,385 MFI	1.75	964* MFI	1104	1914* MFI	4784* MFI	3002* MFI	9726* MFI	0.1	efficacy of upregulation of c-erbB-2 (fold-change in MFI, FIG. 2) (c-erbB-2; 0.1 μg/ml of ADMB, TPA or MEZ): most effective PKC activator tested
CCCCCCCCCCN(C)c1cc(CO)cc(NC(C)=O)c1 [ADMB, 3-(N-acetylamino)-5-(N-decyl-N-methylamino)-benzyl alcohol]	–	–	–	–	–	–	–	–	–	0.1	Monoclonal Antibody Binding (MFI) MoAb K56 (MoAb K56 [1]; [6]): 844 MFI; Monoclonal Antibody Binding (MFI) MoAb K56 (MoAb K56 [1]; [7]): 715 MFI; Monoclonal Antibody Binding (MFI) MoAb K56 (MoAb K56 [1]; [8]): 879 MFI; Monoclonal Antibody Binding (MFI) MoAb K56 (MoAb K56 [1]; [9]): 827 MFI; Monoclonal Antibody Binding (MFI) MoAb K56 (MoAb K56 [1]; [10]): 1116 MFI; Monoclonal Antibody Binding (MFI) MoAb K56 (MoAb K56 [1]; [11]): 1008 MFI; Monoclonal Antibody Binding (MFI) MoAb B67.4 (CA19.9) (CA19.9; [6]): 1136 MFI; Monoclonal Antibody Binding (MFI) MoAb B67.4 (CA19.9) (CA19.9; [7]): 1172 MFI; Monoclonal Antibody Binding (MFI) MoAb B67.4 (CA19.9) (CA19.9; [8]): 1400* MFI; Monoclonal Antibody Binding (MFI) MoAb B67.4 (CA19.9) (CA19.9; [9]): 1512 MFI; Monoclonal Antibody Binding (MFI) MoAb B67.4 (CA19.9) (CA19.9; [10]): 2028* MFI; Monoclonal Antibody Binding (MFI) MoAb B67.4 (CA19.9) (CA19.9; [11]): 2417* MFI; Monoclonal Antibody Binding (MFI) MoAb K56 (MoAb K56 [2]; ADMB 0.01 μg/ml): 2126 MFI; Monoclonal Antibody Binding (MFI) MoAb K56 (MoAb K56 [2]; ADMB 0.1 μg/ml): 1715 MFI; Monoclonal Antibody Binding (MFI) MoAb K56 (MoAb K56 [2]; ADMB 1.0 g/ml): 2420 MFI; Monoclonal Antibody Binding (MFI) MoAb L243 (HLA-DR) (HLA-DR; ADMB 0.01 μg/ml): 4112 MFI; Monoclonal Antibody Binding (MFI) MoAb L243 (HLA-DR) (HLA-DR; ADMB 0.1 μg/ml): 3328 MFI; Monoclonal Antibody Binding (MFI) MoAb L243 (HLA-DR) (HLA-DR; ADMB 1.0): 6870* MFI
B1	–	–	1.8	1046* MFI	1021	2271* MFI	3191* MFI	3126* MFI	14972* MFI	–	activity in increasing Class II HLA-DR antigens relative to ADMB (HLA-DR): approximately 2 ×
B2	–	–	2.1	–	–	–	–	–	–	–	–
